Where two headings read alike, the source gives them in different places.
How the values were obtained:
corneal opacity [1] = conditions: CM
[2] = test system: IL-1β, IL-6, CXCL1, MMPs -1,-3,-9,-13 mRNA transcripts
corneal opacity [3] = conditions: WT, CM, 2D post injury; ref Bian et al., 2016; cited from earlier work
[4] = test system: corneal epithelial defect; conditions: CM; for wound healing: day 5
[5] = test system: MMP-1 immunoreactivity; Gr-1+ cells; conditions: WT mice, CM, topical Dex; not in MMP-8KO mice
MMP-14 cd = MMP-14 cd (Homo sapiens, UniProt P50281); conditions: read-out: IC50 MMP-14; average of three determinations, SD <10%
[6] = test system: inflammatory cytokines and MMPs in the cornea; conditions: naïve WT mice, CAM12 IP QD for 5 days versus PBS; data not shown
MMP-3 = MMP-3 (Homo sapiens, UniProt P08254); conditions: read-out: IC50 MMP-3; average of three determinations, SD <10%
MMP-1 = MMP-1 (Homo sapiens, UniProt P03956); conditions: read-out: IC50 MMP-1; average of three determinations, SD <10%
MMP-8 = MMP-8 (Homo sapiens, UniProt P22894); conditions: read-out: IC50 MMP-8; average of three determinations, SD <10%
MMP-9 = MMP-9 (Homo sapiens, UniProt P14780); conditions: read-out: IC50 MMP-9; average of three determinations, SD <10%
MMP-2 = MMP-2 (Homo sapiens, UniProt P08253); conditions: read-out: IC50 MMP-2; average of three determinations, SD <10%
Sequence of MMP-2 (P08253 110-660): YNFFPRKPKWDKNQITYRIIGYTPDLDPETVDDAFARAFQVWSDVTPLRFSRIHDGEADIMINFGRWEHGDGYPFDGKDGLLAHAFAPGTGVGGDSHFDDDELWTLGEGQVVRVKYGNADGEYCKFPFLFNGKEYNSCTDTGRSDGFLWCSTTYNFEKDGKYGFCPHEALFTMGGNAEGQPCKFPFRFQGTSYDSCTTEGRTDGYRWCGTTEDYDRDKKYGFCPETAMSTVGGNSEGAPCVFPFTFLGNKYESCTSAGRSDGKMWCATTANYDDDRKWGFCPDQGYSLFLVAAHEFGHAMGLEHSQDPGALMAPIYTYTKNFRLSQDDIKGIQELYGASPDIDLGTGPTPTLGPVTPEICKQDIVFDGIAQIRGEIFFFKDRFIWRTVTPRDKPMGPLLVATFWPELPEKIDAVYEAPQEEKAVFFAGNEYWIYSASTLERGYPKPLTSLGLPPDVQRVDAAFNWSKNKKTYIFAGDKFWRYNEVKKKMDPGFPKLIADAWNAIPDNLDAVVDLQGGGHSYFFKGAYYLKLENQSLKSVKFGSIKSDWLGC

Sequence of MMP-3 (P08254 100-477): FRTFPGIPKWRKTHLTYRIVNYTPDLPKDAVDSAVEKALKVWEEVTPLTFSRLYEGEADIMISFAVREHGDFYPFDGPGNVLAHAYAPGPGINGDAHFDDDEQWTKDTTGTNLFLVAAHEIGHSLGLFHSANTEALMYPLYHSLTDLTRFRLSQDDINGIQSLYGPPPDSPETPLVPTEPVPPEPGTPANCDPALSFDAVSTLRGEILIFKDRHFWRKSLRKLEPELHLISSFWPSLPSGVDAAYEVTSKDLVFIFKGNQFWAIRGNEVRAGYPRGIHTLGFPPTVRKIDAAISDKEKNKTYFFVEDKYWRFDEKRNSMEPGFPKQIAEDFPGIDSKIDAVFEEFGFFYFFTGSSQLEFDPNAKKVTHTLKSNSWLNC
Sequence of MMP-9 (P14780 107-707 limits assumed): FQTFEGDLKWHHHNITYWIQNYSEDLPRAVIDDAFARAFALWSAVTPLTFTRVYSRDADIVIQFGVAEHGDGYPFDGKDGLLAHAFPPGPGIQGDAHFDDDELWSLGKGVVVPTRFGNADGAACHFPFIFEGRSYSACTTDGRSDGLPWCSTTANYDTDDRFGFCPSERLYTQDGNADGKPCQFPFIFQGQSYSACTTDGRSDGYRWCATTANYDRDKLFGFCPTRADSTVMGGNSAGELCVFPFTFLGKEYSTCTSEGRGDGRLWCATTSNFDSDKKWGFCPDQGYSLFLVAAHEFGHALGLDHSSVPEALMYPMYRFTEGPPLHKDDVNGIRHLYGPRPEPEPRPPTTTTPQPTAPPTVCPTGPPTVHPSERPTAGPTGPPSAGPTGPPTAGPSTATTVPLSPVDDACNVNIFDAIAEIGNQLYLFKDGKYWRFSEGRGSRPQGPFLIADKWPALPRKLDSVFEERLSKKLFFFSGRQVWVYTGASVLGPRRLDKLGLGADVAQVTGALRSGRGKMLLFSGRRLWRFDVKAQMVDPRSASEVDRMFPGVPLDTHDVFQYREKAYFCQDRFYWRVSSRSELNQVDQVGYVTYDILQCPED
Sequence of MMP-1 (P03956 100-469): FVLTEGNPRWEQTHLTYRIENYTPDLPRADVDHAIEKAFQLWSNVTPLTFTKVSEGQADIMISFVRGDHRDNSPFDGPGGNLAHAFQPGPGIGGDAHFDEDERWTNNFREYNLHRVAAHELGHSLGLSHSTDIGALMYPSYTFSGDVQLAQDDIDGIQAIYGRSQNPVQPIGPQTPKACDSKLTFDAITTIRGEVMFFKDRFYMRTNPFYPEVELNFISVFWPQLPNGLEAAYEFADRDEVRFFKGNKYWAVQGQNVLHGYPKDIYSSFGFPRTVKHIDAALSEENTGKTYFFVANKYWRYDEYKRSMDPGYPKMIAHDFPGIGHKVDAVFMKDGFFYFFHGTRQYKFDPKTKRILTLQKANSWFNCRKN
Sequence of MMP-8 (P22894 101-467, species assumed): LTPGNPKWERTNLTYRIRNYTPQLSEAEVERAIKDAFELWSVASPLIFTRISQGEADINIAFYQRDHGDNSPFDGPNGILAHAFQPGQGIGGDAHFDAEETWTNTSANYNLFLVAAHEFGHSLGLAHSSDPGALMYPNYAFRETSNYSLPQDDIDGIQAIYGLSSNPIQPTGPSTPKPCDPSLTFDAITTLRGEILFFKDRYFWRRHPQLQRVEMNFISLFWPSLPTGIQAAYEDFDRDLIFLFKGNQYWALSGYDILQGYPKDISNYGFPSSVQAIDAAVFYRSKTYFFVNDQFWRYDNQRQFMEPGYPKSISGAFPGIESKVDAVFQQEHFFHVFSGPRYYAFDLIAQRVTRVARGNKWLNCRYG

C[C@@H]1C[C@H]2[C@@H]3CCC4=CC(=O)C=C[C@]4(C)[C@@]3(F)[C@@H](O)C[C@]2(C)[C@@]1(O)C(=O)CO [Dex, Dexamethasone]
corneal opacity score, Dex-treated MMP-8KO versus Dex treated WT (corneal opacity [1]; 5 days post injury): significantly higher corneal opacity scores | corneal opacity, topical Dex + vehicle IP versus topical BSS + vehicle IP (corneal opacity [1]; WT mice): significantly lower corneal opacity | cytokine and MMP transcripts, Dex versus BSS ([2]; MMP-8KO mice, CM 2D post injury): decreased IL-6, MMP-3, and MMP-9 | cytokine and MMP transcripts, Dex versus BSS ([2]; MMP-8KO mice, CM 5D post injury): decreased MMP-9 and MMP-13 | IL-1β and CXCL1 expression ([2]; MMP-8KO mice, CM, topical Dex, in contrast to WT): lost its ability to decrease IL-1β and CXCL1 expression | cytokine and MMP transcripts, Dex versus BSS ([2]; WT mice, CM 2D post injury): significantly decreased IL-6, MMPs -3, -9, -13 transcripts | cytokine and MMP transcripts, Dex versus BSS ([2]; WT mice, CM 5D): significantly decreased IL-6 and MMP-3 | corneal opacity score, Dex versus BSS (corneal opacity [3]): significantly lower opacity scores | wound healing ([4]; Dex treated MMP-8KO mice): 40% | wound healing ([4]; Dex treated WT mice): 75% | influx of Gr-1+ cells into the wound site [5]: inhibited the influx

O=C(NO)c1ccccc1S(=O)(=O)c1ccc(-c2ccc(N3CCOCC3)cc2)cc1 [CAM12, N-Hydroxy-2-((4′-morpholino-[1,1′-biphenyl]-4-yl)sulfonyl) benzamide]
IC50 (MMP-14 cd): 1140 nM | corneal opacity score, topical Dex + CAM12 IP versus Dex + vehicle IP (corneal opacity [1]; WT mice, 100 nM CAM12 IP QD): higher corneal opacity score | MMP-13 mRNA, CAM12 IP versus controls ([2]; WT mice, CM 2D and 5D, Dex topical treatment): higher MMP-13 mRNA transcripts | IL-1β, IL-6, MMP-9 mRNA, CAM12 IP versus controls ([2]; WT mice, CM 2D and 5D, both Dex and BSS topical treatment): higher expression of IL-1β, IL-6, MMP-9 | MMP-1, -3 mRNA, CAM12 IP versus controls ([2]; WT mice, CM 5D, Dex topical treatment): higher levels of MMP-1, -3 | expression of inflammatory cytokines and MMPs in the cornea [6]: no change in expression of inflammatory cytokines and MMPs | re-epithelialization, topical Dex + CAM12 IP versus Dex + vehicle IP ([4]; WT mice, 100 nM CAM12 IP QD): delayed re epithelialization | IC50 (MMP-3): 12000 nM | IC50 (MMP-1): 16700 nM | IC50 (MMP-8): 57 nM | IC50 (MMP-9): 2300 nM | IC50 (MMP-2): 24 nM

— PMC4946998 (Journal of cellular physiology, 2016)
